Here are results for 28 compounds from patent US20110190269A1, “GAMMA SECRETASE MODULATORS” (priority 2010, published 2011).

The test deals with γ-secretase. The experiment in a line: Cellular γ-secretase assay (inhibition of Aβ42 secretion). As to conditions: human neuroglioma H4 cells overexpressing human APP, 22 hrs incubation. The class given is cell-based. As to the method: Human neuroglioma H4 cells overexpressing human APP were plated at 30,000 cells/well/[…] in 96-well plates in IMDM media containing 10% FCS, […] Hygromycin B and incubated for 2 h at 37° C., 5% CO2 prior to adding test compounds.
Compounds for testing were dissolved in 100% Me2SO yielding in a 10 mM stock solution. Typically […] of these solutions were further diluted in 1000 μl of IMDM media (w/o FCS). Subsequent 1:1 dilutions gave a ten point dose response curve. 100 μl of each dilution was added to the cells in 96-well plates. Appropriate controls using vehicle only and reference compound were applied to this assay. The final concentration of Me2S0 was 0.4%.
After incubation for 22 hrs at 37° C., 5% CO2, 50 μl supernatant was transferred into round-bottom 96-well polypropylene plates for detection of Aβ42. 50 μl assay buffer (50 mM Tris/Cl, pH 7.4, 60 mM NaCl, 0.5% BSA, 1% TWEEN 20) was added to the wells followed by the addition of 100 μl of detection antibody (ruthenylated BAP15 0.0625 μg/ml in assay buffer). 50 μl of a premix of capture antibody (biotinylated 6E10 antibody, 1 μg/ml) and Steptavidin-coated magnetic beads (Dynal M-280, 0.125 mg/ml) were preincubated for 1 hr at room temperature before adding the assay plates. Assay plates were incubated on a shaker for 3 hrs at room temperature and finally read in the Bioveris M8 Analyser according to the manufacturer's instructions (Bioveris).
IC50 values for inhibition of Aβ42 secretion were calculated by nonlinear regression fit analysis using XLfit 4.0 software (IDBS).

`COc1cc(Nc2nc3ncc(C#N)c(-c4ccccc4F)n3n2)ccc1-n1cnc(C)c1` [Example 69, 7-(2-Fluorophenyl)-2-(3-methoxy-4-(4-methyl-1H-imidazol-1-yl)phenylamino)-[1,2,4]triazolo[1,5-a]pyrimidine-6-carbonitrile] yielded a half-maximal effective concentration (EC50) of 485 nM. Next, `COc1cc(Nc2nc3c(N4CCC(C(F)(F)F)CC4)cccn3n2)ccc1-n1cnc(C)c1` [Example 140, N-(3-methoxy-4-(4-methyl-1H-imidazol-1-yl)phenyl)-8-(4-(trifluoromethyl)piperidin-1-yl)-[1,2,4]triazolo[1,5-a]pyridin-2-amine]: 180 nM.

As for `COc1cc(Nc2nc3c(C)cnc(OCC(F)(F)F)n3n2)ccc1-n1cnc(C)c1` [Example 72, [3-Methoxy-4-(4-methyl-imidazol-1-yl)-phenyl]-[8-methyl-5-(2,2,2-trifluoro-ethoxy)-[1,2,4]triazolo[1,5-c]pyrimidin-2-yl]-amine], the EC50 stood at 355 nM. The compound `CCCc1nc(C)cc2nc(Nc3ccc(-n4cnc(C)c4)c(C#N)c3)nn12` [Example 4, 2-(4-Methyl-imidazol-1-yl)-5-(7-methyl-5-propyl-[1,2,4]triazolo[1,5-c]pyrimidin-2-ylamino)-benzonitrile] returned an EC50 of 1280 nM. Take `COc1cc(Nc2nc3c(C4=CCN(CC#N)CC4)cc(C)cn3n2)ccc1-n1cnc(C)c1` [Example 108, 2-(4-(2-(3-Methoxy-4-(4-methyl-1H-imidazol-1-yl)phenylamino)-6-methyl-[1,2,4]triazolo[1,5-a]pyridin-8-yl)-5,6-dihydropyridin-1(2H)-yl)acetonitrile]: the EC50 was determined as 488 nM. Take `COc1cc(Nc2nc3c(-c4ccc(F)cc4)ccc(C(C)(C)O)n3n2)ccc1-n1cnc(C)c1` [Example 119, 2-{8-(4-Fluoro-phenyl)-2-[3-methoxy-4-(4-methyl-imidazol-1-yl)-phenylamino]-[1,2,4]triazolo[1,5-a]pyridin-5-yl}-propan-2-ol]: the half-maximal effective concentration (EC50) was 31 nM. Compared with the last compound, the EC50 is about 16-fold lower. The figure for `COc1cc(Nc2nc3nc(C)cc(-c4ccccc4)n3n2)ccc1-n1cnc(C)c1` [Example 18, [3-Methoxy-4-(4-methyl-imidazol-1-yl)-phenyl]-(5-methyl-7-phenyl-[1,2,4]triazolo[1,5-a]pyrimidin-2-yl)-amine acetate] is 129 nM; for `COc1cc(Nc2nc3nc(C(F)(F)F)cc(-c4ccco4)n3n2)ccc1-n1cnc(C)c1` [Example 24, (7-Furan-2-yl-5-trifluoromethyl-[1,2,4]triazolo[1,5-a]pyrimidin-2-yl)-[3-methoxy-4-(4-methyl-imidazol-1-yl)-phenyl]-amine] it is 592 nM; for `COc1cc(Nc2nc3ccnc(-c4ccc(F)cc4)n3n2)ccc1-n1cnc(C)c1` [Example 45, [5-(4-Fluoro-phenyl)-[1,2,4]triazolo[1,5-c]pyrimidin-2-yl]-[3-methoxy-4-(4-methyl-imidazol-1-yl)-phenyl]-amine] it is 1400 nM. For the compound `COc1cc(Nc2nc3nccc(-c4ccc(C(F)(F)F)cc4)n3n2)ccc1-n1cnc(C)c1` [Example 36, [3-Methoxy-4-(4-methyl-imidazol-1-yl)-phenyl]-[7-(4-trifluoromethyl-phenyl)-[1,2,4]triazolo[1,5-a]pyrimidin-2-yl]-amine], the response was half-maximal at 573 nM (EC50). For `COC(=O)c1cc(-c2cccc(OC(F)F)c2)n2nc(Nc3ccc(-n4cnc(C)c4)c(OC)c3)nc2n1` [Example 19, 7-(3-Difluoromethoxy-phenyl)-2-[3-methoxy-4-(4-methyl-imidazol-1-yl)-phenylamino]-[1,2,4]triazolo[1,5-a]pyrimidine-5-carboxylic acid methyl ester acetate], the response was half-maximal at 953 nM (EC50). As to `COc1cc(Nc2nc3c(C)cnc(N4CCCC4)n3n2)ccc1-n1cnc(C)c1` [Example 60, [3-Methoxy-4-(4-methyl-imidazol-1-yl)-phenyl]-(8-methyl-5-pyrrolidin-1-yl-[1,2,4]triazolo[1,5-c]pyrimidin-2-yl)-amine], a half-maximal effect (EC50) was put at 672 nM. Compound `COc1cc(Nc2nc3c(-c4ccc(Cl)cc4)cccn3n2)ccc1-n1cnc(C)c1` [Example 125, [8-(4-Chloro-phenyl)-[1,2,4]triazolo[1,5-a]pyridin-2-yl]-[3-methoxy-4-(4-methyl-imidazol-1-yl)-phenyl]-amine] gave an EC50 of 50 nM. This EC50 lies about 13-fold lower than the previous one. As for `COc1cc(Nc2nc3cc(C)cc(C)n3n2)ccc1-n1cnc(C)c1` [Example 14, (5,7-Dimethyl-[1,2,4]triazolo[1,5-a]pyridin-2-yl)-[3-methoxy-4-(4-methyl-imidazol-1-yl)-phenyl]-amine], it took 679 nM to reach a half-maximal effect (EC50). Against the preceding compound, the EC50 is about 14-fold higher.

In the case of `COc1cc(Nc2nc3n(n2)C(c2ccc(F)cc2)CN(S(C)(=O)=O)C3)ccc1-n1cnc(C)c1` (stereo not shown) [Example 57, 5-(4-Fluorophenyl)-N-(3-methoxy-4-(4-methyl-1H-imidazol-1-yl)phenyl)-7-(methylsulfonyl)-5,6,7,8-tetrahydro-[1,2,4]triazolo[1,5-a]pyrazin-2-amine], the EC50 amounted to 431 nM. Compared with the last compound, the EC50 is about 1.6-fold lower. Next, `COc1cc(Nc2nc3n(n2)C(c2ccc(F)cc2)CCC3)ccc1-n1cnc(C)c1` (stereo not shown) [Example 2, [5-(4-Fluoro-phenyl)-5,6,7,8-tetrahydro-[1,2,4]triazolo[1,5-a]pyridin-2-yl]-[3-methoxy-4-(4-methyl-imidazol-1-yl)-phenyl]-amine]: 320 nM. On to `COc1cc(Nc2nc3c(-c4ccc(F)c(Cl)c4)cccn3n2)ccc1-n1cnc(C)c1` [Example 130, 8-(3-chloro-4-fluorophenyl)-N-(3-methoxy-4-(4-methyl-1H-imidazol-1-yl)phenyl)-[1,2,4]triazolo[1,5-a]pyridin-2-amine], for which the EC50 was 16 nM. Compound `COc1cc(Nc2nc3c(-c4ccc(F)c(F)c4)cc(C)cn3n2)ccc1-n1cnc(C)c1` [Example 63, [8-(3,4-Difluoro-phenyl)-6-methyl-[1,2,4]triazolo[1,5-a]pyridin-2-yl]-[3-methoxy-4-(4-methyl-imidazol-1-yl)-phenyl]-amine] gave an EC50 of 10 nM. Compared with the last compound, the EC50 is about 1.6-fold lower. The compound `COc1cc(Nc2nc3cccc(-c4ccc(F)cc4)n3n2)ccc1-n1cnc(C)c1` [Example 8, [5-(4-Fluoro-phenyl)-[1,2,4]triazolo[1,5-a]pyridin-2-yl]-[3-methoxy-4-(4-methyl-imidazol-1-yl)-phenyl]-amine] registered an EC50 of 50 nM. Compound `COc1cc(F)ccc1-c1cc(C)cn2nc(Nc3ccc(-n4cnc(C)c4)c(OC)c3)nc12` [Example 64, [8-(4-Fluoro-2-methoxy-phenyl)-6-methyl-[1,2,4]triazolo[1,5-a]pyridin-2-yl]-[3-methoxy-4-(4-methyl-imidazol-1-yl)-phenyl]-amine] registered an EC50 of 73 nM. Consider `Cc1cc(-c2ccc(Nc3nc4c(-c5ccc(F)cc5Cl)cccn4n3)cc2)nc(C)n1` [Example 115, 8-(2-chloro-4-fluorophenyl)-N-(4-(2,6-dimethylpyrimidin-4-yl)phenyl)-[1,2,4]triazolo[1,5-a]pyridin-2-amine], for which the EC50 came to 242 nM. Compared with the last compound, the EC50 is about 3.3-fold higher.

`Cc1cn(-c2c(F)cc(Nc3nc4c(-c5ccc(F)cc5Cl)cccn4n3)cc2F)cn1` [Example 111, 8-(2-chloro-4-fluorophenyl)-N-(3,5-difluoro-4-(4-methyl-1H-imidazol-1-yl)phenyl)-[1,2,4]triazolo[1,5-a]pyridin-2-amine] yielded an EC50 of 29 nM. For `COc1cc(Nc2nc3ccc(C)c(C)n3n2)ccc1-n1cnc(C)c1` [Example 50, (5,6-Dimethyl-[1,2,4]triazolo[1,5-a]pyridin-2-yl)-[3-methoxy-4-(4-methyl-imidazol-1-yl)-phenyl]-amine], the response was half-maximal at 400 nM (EC50).

Compound `COc1cc(Nc2nc3c(-c4ccc(Cl)cc4)cc(C)c(C(C)(C)O)n3n2)ccc1-n1cnc(C)c1` [Example 144, 2-{8-(4-Chloro-phenyl)-2-[3-methoxy-4-(4-methyl-imidazol-1-yl)-phenylamino]-6-methyl-[1,2,4]triazolo[1,5-a]pyridin-5-yl}-propan-2-ol] displayed a half-maximal effective concentration (EC50) of 69 nM. This EC50 lies about 5.8-fold lower than the previous one. With `COc1cc(Nc2nc3nc(C)cc(-c4ccc(F)c(Cl)c4)n3n2)ccc1-n1cnc(C)c1` [Example 93, 7-(3-Chloro-4-fluorophenyl)-N-(3-methoxy-4-(4-methyl-1H-imidazol-1-yl)phenyl)-5-methyl-[1,2,4]triazolo[1,5-a]pyrimidin-2-amine], the 50% effective concentration (EC50) was found to be 68 nM. The figure for `COc1cc(Nc2nc3nc(C(F)(F)F)cc(-c4ccc(F)c(Cl)c4)n3n2)ccc1-n1cnc(C)c1` [Example 79, 7-(3-Chloro-4-fluorophenyl)-N-(3-methoxy-4-(4-methyl-1H-imidazol-1-yl)phenyl)-5-(trifluoromethyl)-[1,2,4]triazolo[1,5-a]pyrimidin-2-amine acetate] is 73 nM; for `COc1cc(Nc2nc3c(-c4ccc(Cl)cc4C=O)cc(C)cn3n2)ccc1-n1cnc(C)c1` [Example 91, 5-Chloro-2-(2-(3-methoxy-4-(4-methyl-1H-imidazol-1-yl)phenylamino)-6-methyl-[1,2,4]triazolo[1,5-a]pyridin-8-yl)benzaldehyde] it is 310 nM; for `COc1cc(Nc2nc3c(-c4ccc(F)cc4Cl)cccn3n2)cc(F)c1-n1cnc(C)c1` [Example 112, 8-(2-chloro-4-fluorophenyl)-N-(3-fluoro-5-methoxy-4-(4-methyl-1H-imidazol-1-yl)phenyl)-[1,2,4]triazolo[1,5-a]pyridin-2-amine] it is 46 nM.

As usually defined, the EC50 is the midpoint of the concentration-response curve. A high value points to weaker potency.
